Source: article PMC7265341, “Quantifying CDK inhibitor selectivity in live cells” (Nature Communications, 2020)
Like-named read-outs stand apart in the source and are kept apart here.

How the values were obtained:
[1] = target: CDK1/Cyclin E1 (Homo sapiens, UniProt P06493); assay: NanoBRET live-cell target engagement, CDK1-NanoLuc/Cyclin E1 in HEK-293; type: binding; details: CDK1/E1, 10µM
[2] = target: CDK2/Cyclin E1 (Homo sapiens, UniProt P24941); assay: NanoBRET live-cell target engagement, CDK2-NanoLuc/Cyclin E1 in HEK-293; type: binding; details: CDK2/E1, 10µM
[3] = target: CDK3/Cyclin E1 (Homo sapiens, UniProt Q00526); assay: NanoBRET live-cell target engagement, CDK3-NanoLuc/Cyclin E1 in HEK-293; type: binding; details: CDK3/E1, 10µM
[4] = target: CDK4/Cyclin D1 (Homo sapiens, UniProt P11802); assay: NanoBRET live-cell target engagement, NanoLuc-CDK4/Cyclin D1 in HEK-293; type: binding; details: CDK4/D1, 10µM
[5] = target: CDK5/CDK5R1 (Homo sapiens, UniProt Q00535); assay: NanoBRET live-cell target engagement, CDK5-NanoLuc/CDK5R1 in HEK-293; type: binding; details: CDK5/CDK5R1, 10µM
[6] = target: CDK6/Cyclin D1 (Homo sapiens, UniProt Q00534); assay: NanoBRET live-cell target engagement, NanoLuc-CDK6/Cyclin D1 in HEK-293; type: binding; details: CDK6/D1, 10µM
[7] = target: CDK7 (Homo sapiens, UniProt P50613); assay: NanoBRET live-cell target engagement, NanoLuc-CDK7 in HEK-293; type: binding; details: CDK7, 10µM
[8] = target: CDK8/Cyclin C (Homo sapiens, UniProt P49336); assay: NanoBRET live-cell target engagement, NanoLuc-CDK8/Cyclin C in HEK-293; type: binding; details: CDK8/C, 10µM
[9] = target: CDK9/Cyclin K (Homo sapiens, UniProt P50750); assay: NanoBRET live-cell target engagement, NanoLuc-CDK9/Cyclin K in HEK-293; type: binding; details: for inhibition at 10 µM: CDK9/K
[10] = target: T1, CDK11A/Cyclin L2 (Homo sapiens, UniProt Q9UQ88); assay: NanoBRET live-cell target engagement, CDK11A-NanoLuc/Cyclin L2 in HEK-293; type: binding; details: CDK11a/L2, 10µM
T1 sequence (Q9UQ88 1-783): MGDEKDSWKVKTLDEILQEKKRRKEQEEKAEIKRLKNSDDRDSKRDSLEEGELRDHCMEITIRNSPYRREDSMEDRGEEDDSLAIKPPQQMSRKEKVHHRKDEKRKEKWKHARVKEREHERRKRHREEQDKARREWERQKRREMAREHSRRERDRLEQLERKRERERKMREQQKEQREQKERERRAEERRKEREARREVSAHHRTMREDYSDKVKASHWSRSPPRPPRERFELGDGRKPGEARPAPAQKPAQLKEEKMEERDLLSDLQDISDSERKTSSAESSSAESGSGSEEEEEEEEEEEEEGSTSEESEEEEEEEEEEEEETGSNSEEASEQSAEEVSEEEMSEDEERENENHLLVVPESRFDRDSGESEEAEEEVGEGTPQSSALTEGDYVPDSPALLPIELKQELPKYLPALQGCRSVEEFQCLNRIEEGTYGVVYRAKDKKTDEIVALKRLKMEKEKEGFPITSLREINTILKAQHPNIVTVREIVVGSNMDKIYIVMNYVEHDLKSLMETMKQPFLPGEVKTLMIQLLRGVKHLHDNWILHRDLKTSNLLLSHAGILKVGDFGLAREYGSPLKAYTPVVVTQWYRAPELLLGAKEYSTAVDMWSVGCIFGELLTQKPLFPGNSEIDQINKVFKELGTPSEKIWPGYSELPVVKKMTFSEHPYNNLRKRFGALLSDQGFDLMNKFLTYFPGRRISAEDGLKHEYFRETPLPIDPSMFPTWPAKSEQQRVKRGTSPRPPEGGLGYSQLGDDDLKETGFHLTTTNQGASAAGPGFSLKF

[11] = target: CDK11B/Cyclin L2 (Homo sapiens, UniProt P21127); assay: NanoBRET live-cell target engagement, CDK11B-NanoLuc/Cyclin L2 in HEK-293; type: binding; details: CDK11b/L2, 10µM
[12] = target: CDK14/Cyclin Y (Homo sapiens, UniProt O94921); assay: NanoBRET live-cell target engagement, CDK14-NanoLuc/Cyclin Y in HEK-293; type: binding; details: CDK14/Y, 10µM
[13] = target: CDK15/Cyclin Y (Homo sapiens, UniProt Q96Q40); assay: NanoBRET live-cell target engagement, NanoLuc-CDK15/Cyclin Y in HEK-293; type: binding; details: CDK15/Y, 10µM
[14] = target: CDK16/Cyclin Y (Homo sapiens, UniProt Q00536); assay: NanoBRET live-cell target engagement, CDK16-NanoLuc/Cyclin Y in HEK-293; type: binding; details: CDK16/Y, 10µM
[15] = target: CDK17/Cyclin Y (Homo sapiens, UniProt Q00537); assay: NanoBRET live-cell target engagement, CDK17-NanoLuc/Cyclin Y in HEK-293; type: binding; details: CDK17/Y, 10µM
[16] = target: CDK18/Cyclin Y (Homo sapiens, UniProt Q07002); assay: NanoBRET live-cell target engagement, CDK18-NanoLuc/Cyclin Y in HEK-293; type: binding; details: CDK18/Y, 10µM
[17] = target: CDK20/Cyclin H (Homo sapiens, UniProt Q8IZL9); assay: NanoBRET live-cell target engagement, NanoLuc-CDK20/Cyclin H in HEK-293; type: binding; details: CDK20/H, 10µM
[18] = target: CDK19/Cyclin C (Homo sapiens, UniProt Q9BWU1); assay: NanoBRET live-cell target engagement, NanoLuc-CDK19/Cyclin C in HEK-293; details: 10µM
[19] = target: CDK10/Cyclin L2 (Homo sapiens, UniProt Q15131); assay: NanoBRET live-cell target engagement, CDK10-NanoLuc/Cyclin L2 in HEK-293; details: 10µM
[20] = average of replicates, read-out: Inhibition at 10µM (%) Average
[21] = read-out: Inhibition at 10µM (%) Replicate 1
[22] = read-out: Inhibition at 10µM (%) Replicate 2

CDK8/Cyclin C, sequence (P49336 whole entry): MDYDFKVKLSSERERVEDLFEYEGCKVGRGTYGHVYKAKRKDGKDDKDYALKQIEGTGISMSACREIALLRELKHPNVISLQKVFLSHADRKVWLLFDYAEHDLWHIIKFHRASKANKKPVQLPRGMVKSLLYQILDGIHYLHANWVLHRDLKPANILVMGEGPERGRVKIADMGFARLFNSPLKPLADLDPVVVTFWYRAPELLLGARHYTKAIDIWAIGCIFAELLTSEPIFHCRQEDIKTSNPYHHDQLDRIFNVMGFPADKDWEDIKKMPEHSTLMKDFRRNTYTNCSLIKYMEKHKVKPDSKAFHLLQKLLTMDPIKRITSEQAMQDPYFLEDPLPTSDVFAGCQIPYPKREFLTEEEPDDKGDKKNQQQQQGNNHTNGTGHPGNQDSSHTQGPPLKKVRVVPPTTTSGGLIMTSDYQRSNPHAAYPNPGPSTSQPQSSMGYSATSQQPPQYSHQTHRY
CDK8/Cyclin C, sequence (P24863 whole entry partner): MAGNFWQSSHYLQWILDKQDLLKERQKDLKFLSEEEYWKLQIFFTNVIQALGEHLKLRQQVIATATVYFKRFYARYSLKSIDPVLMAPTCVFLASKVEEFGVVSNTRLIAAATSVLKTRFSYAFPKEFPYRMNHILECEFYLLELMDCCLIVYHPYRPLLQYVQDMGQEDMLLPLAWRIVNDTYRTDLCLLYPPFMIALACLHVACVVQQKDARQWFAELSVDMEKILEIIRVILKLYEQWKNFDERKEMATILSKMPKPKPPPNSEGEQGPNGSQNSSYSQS
CDK17/Cyclin Y, sequence (Q00537 whole entry): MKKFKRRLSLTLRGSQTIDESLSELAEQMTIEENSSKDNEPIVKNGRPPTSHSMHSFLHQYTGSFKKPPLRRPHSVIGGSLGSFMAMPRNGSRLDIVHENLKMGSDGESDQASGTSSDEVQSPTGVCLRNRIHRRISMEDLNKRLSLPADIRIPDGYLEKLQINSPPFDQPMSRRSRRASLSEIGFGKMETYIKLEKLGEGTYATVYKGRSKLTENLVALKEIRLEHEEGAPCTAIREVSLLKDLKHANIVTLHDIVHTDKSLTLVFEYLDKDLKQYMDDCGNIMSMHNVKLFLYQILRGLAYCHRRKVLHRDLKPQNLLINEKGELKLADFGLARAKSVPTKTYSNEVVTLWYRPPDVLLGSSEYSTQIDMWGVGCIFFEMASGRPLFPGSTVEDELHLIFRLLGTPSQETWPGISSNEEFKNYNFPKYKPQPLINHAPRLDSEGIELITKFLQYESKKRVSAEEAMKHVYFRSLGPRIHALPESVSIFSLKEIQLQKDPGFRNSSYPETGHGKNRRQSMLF
CDK17/Cyclin Y, sequence (Q8ND76 whole entry partner): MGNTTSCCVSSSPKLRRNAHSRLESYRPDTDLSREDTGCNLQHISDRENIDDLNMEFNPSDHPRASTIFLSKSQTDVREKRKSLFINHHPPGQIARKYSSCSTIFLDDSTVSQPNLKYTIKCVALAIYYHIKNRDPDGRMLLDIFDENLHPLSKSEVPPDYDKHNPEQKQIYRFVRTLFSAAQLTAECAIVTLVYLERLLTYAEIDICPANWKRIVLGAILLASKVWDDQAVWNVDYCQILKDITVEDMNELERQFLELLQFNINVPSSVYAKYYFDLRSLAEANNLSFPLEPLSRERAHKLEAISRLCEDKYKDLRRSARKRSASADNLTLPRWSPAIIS
CDK14/Cyclin Y, sequence (O94921 whole entry): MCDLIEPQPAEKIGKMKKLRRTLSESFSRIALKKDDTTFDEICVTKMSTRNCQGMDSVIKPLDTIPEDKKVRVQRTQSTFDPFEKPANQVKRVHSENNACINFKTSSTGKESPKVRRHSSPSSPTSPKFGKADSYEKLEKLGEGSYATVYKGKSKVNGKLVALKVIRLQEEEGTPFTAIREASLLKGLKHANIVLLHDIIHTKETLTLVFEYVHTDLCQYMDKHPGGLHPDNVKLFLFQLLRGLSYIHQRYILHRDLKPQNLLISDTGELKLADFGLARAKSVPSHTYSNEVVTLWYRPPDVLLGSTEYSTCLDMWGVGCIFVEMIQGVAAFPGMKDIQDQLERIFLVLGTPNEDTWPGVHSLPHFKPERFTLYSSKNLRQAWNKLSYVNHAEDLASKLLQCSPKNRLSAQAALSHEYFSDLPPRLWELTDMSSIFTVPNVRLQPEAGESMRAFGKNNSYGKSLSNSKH
CDK14/Cyclin Y, sequence (Q8ND76 whole entry partner): as the sequence (Q8ND76 whole entry partner) above
CDK5/CDK5R1, sequence (Q00535 whole entry): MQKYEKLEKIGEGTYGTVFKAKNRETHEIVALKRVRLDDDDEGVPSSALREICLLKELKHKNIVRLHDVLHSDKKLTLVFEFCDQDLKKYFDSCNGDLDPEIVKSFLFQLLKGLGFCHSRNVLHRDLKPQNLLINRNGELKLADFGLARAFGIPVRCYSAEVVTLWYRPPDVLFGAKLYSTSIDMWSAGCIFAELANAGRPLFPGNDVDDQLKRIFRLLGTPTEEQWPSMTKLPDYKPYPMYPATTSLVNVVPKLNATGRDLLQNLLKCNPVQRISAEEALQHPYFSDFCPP
CDK5/CDK5R1, sequence (Q15078 whole entry partner): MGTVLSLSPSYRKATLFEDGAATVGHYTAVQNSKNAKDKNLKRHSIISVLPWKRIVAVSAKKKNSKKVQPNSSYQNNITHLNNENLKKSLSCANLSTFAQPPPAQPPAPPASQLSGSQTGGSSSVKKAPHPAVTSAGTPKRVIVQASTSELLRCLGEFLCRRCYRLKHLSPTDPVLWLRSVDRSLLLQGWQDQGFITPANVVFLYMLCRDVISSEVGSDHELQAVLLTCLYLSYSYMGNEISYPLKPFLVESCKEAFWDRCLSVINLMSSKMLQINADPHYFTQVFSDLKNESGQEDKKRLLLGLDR
CDK9/Cyclin K, sequence (P50750 whole entry): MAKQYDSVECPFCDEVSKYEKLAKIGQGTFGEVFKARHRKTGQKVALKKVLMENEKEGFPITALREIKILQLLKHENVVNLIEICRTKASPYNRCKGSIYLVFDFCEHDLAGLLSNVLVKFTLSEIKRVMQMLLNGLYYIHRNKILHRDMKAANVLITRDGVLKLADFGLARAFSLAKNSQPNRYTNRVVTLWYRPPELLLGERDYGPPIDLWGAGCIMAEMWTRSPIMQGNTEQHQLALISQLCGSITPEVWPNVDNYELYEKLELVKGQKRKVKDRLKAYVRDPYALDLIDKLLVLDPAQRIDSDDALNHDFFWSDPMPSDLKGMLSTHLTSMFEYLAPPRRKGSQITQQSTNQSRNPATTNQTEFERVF
CDK9/Cyclin K, sequence (O75909 whole entry partner): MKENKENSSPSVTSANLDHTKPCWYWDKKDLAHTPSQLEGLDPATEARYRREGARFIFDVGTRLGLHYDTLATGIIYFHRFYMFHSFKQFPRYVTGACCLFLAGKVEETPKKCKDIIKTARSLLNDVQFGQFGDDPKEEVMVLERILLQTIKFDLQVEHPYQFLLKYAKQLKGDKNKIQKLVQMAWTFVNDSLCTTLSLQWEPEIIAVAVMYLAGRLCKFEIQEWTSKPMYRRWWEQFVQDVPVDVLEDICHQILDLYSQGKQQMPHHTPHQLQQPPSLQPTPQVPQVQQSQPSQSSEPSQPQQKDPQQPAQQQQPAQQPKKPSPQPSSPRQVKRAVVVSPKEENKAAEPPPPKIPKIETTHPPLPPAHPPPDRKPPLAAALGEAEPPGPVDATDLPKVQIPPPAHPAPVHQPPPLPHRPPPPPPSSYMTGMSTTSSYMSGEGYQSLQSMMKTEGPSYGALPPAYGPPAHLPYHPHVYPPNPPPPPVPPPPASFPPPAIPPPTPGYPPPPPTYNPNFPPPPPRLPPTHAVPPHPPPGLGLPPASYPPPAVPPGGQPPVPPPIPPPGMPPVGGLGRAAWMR
CDK15/Cyclin Y, sequence (Q96Q40 whole entry): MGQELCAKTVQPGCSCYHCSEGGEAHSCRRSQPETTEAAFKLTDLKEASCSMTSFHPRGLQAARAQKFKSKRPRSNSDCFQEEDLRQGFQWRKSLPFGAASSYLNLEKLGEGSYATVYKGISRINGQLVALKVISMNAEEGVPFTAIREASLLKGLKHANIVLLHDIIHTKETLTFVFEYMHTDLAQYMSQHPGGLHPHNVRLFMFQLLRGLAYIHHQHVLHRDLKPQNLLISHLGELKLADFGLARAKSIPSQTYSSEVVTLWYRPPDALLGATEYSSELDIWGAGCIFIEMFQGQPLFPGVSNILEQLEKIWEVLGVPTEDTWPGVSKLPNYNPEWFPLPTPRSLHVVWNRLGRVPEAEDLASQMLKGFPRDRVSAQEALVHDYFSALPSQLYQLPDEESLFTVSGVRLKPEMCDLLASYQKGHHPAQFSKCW
CDK15/Cyclin Y, sequence (Q8ND76 whole entry partner): as the sequence (Q8ND76 whole entry partner) above
CDK4/Cyclin D1, sequence (P11802 whole entry): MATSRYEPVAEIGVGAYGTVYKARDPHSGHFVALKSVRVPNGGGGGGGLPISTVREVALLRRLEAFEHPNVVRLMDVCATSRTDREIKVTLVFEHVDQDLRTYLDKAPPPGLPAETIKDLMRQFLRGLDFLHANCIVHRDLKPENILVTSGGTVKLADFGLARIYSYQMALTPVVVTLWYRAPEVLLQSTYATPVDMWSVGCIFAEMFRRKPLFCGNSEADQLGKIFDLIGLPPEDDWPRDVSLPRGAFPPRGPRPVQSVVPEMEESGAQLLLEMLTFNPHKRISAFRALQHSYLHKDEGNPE
CDK4/Cyclin D1, sequence (P24385 whole entry partner): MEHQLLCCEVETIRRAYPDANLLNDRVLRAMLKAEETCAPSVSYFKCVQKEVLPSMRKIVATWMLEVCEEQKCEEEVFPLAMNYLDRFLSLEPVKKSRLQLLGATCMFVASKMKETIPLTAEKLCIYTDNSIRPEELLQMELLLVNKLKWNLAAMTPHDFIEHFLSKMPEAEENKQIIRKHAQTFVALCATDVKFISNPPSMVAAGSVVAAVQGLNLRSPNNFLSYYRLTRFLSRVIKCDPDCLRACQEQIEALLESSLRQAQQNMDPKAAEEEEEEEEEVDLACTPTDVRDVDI

## COc1cc(F)ccc1-c1cc(Nc2cc(CS(C)(=N)=O)ccn2)ncc1F (stereo not drawn) [BAY-1251152]
[1]; [20]
  inhibition at 10 µM: 56%
[1]; [21]
  inhibition at 10 µM: 55.2%
[1]; [22]
  inhibition at 10 µM: 56.8%
[2]; [20]
  inhibition at 10 µM: 72.3%
[2]; [21]
  inhibition at 10 µM: 71%
[2]; [22]
  inhibition at 10 µM: 73.6%
[3]; [20]
  inhibition at 10 µM: 77.9%
[3]; [21]
  inhibition at 10 µM: 75.8%
[3]; [22]
  inhibition at 10 µM: 80%
[4]; [20]
  inhibition at 10 µM: 79.7%
[4]; [21]
  inhibition at 10 µM: 75.9%
[4]; [22]
  inhibition at 10 µM: 83.4%
[5]; [20]
  inhibition at 10 µM: 56.6%
[5]; [21]
  inhibition at 10 µM: 44.9%
[5]; [22]
  inhibition at 10 µM: 68.3%
[6]; [20]
  inhibition at 10 µM: 86.3%
[6]; [21]
  inhibition at 10 µM: 83.5%
[6]; [22]
  inhibition at 10 µM: 89.1%
[7]; [20]
  inhibition at 10 µM: 58.7%
[7]; [21]
  inhibition at 10 µM: 59.8%
[7]; [22]
  inhibition at 10 µM: 57.6%
[8]; [20]
  inhibition at 10 µM: 9.9%
[8]; [21]
  inhibition at 10 µM: 13.9%
[8]; [22]
  inhibition at 10 µM: 5.9%
[9]; [20]
  inhibition at 10 µM: 99.8%
[9]; [21]
  inhibition at 10 µM: 99.5%
[9]; [22]
  inhibition at 10 µM: 100%
[9]; LOG10([BAY-1251152]) (LOG10(µM)) 0.045757
  CDK9 Occupancy Data, Plasmid: 99.1453
[9]; LOG10([BAY-1251152]) (LOG10(µM)) 0.522879
  CDK9 Occupancy Data, Plasmid: 96.1111
[9]; LOG10([BAY-1251152]) (LOG10(µM)) 1
  CDK9 Occupancy Data, Plasmid: 96.4103
[9]; LOG10([BAY-1251152]) (LOG10(µM)) -0.43136
  CDK9 Occupancy Data, Plasmid: 97.094
[9]; LOG10([BAY-1251152]) (LOG10(µM)) -0.90849
  CDK9 Occupancy Data, Plasmid: 95.641
[9]; LOG10([BAY-1251152]) (LOG10(µM)) -1.38561
  CDK9 Occupancy Data, Plasmid: 91.9658
[9]; LOG10([BAY-1251152]) (LOG10(µM)) -1.86273
  CDK9 Occupancy Data, Plasmid: 87.906
[9]; LOG10([BAY-1251152]) (LOG10(µM)) -2.33985
  CDK9 Occupancy Data, Plasmid: 67.9487
[9]; LOG10([BAY-1251152]) (LOG10(µM)) -2.81697
  CDK9 Occupancy Data, Plasmid: 29.4872
[9]; LOG10([BAY-1251152]) (LOG10(µM)) -3.29409
  CDK9 Occupancy Data, Plasmid: 6.838
[9]; LOG10([BAY-1251152]) (LOG10(µM)) -3.77121
  CDK9 Occupancy Data, Plasmid: 1.421e-14
[10]; [20]
  inhibition at 10 µM: 44%
[10]; [21]
  inhibition at 10 µM: 39.5%
[10]; [22]
  inhibition at 10 µM: 48.5%
[11]; [20]
  inhibition at 10 µM: 33.9%
[11]; [21]
  inhibition at 10 µM: 35.6%
[11]; [22]
  inhibition at 10 µM: 32.1%
[12]; [20]
  inhibition at 10 µM: 19.5%
[12]; [21]
  inhibition at 10 µM: 16.7%
[12]; [22]
  inhibition at 10 µM: 22.4%
[13]; [20]
  inhibition at 10 µM: 40%
[13]; [21]
  inhibition at 10 µM: 31.9%
[13]; [22]
  inhibition at 10 µM: 48.2%
[14]; [21]
  inhibition at 10 µM: 62.8%
[14]; [22]
  inhibition at 10 µM: 66.7%
[15]; [20]
  inhibition at 10 µM: 59.9%
[15]; [21]
  inhibition at 10 µM: 56.6%
[15]; [22]
  inhibition at 10 µM: 63.1%
[16]; [20]
  inhibition at 10 µM: 46.2%
[16]; [21]
  inhibition at 10 µM: 38.7%
[16]; [22]
  inhibition at 10 µM: 53.8%
[17]; [21]
  inhibition at 10 µM: 8.6%
[17]; [22]
  inhibition at 10 µM: 8.9%
[18]; read-out: Inhibition at 10µM (%) Average, CDK19/C, average of replicates
  inhibition at 10 µM: 21.3%
[18]; read-out: Inhibition at 10µM (%) Replicate 1, CDK19/C
  inhibition at 10 µM: 28.8%
[18]; read-out: Inhibition at 10µM (%) Replicate 2, CDK19/C
  inhibition at 10 µM: 13.7%
[19]; read-out: Inhibition at 10µM (%) Average, CDK10/L2, average of replicates
  inhibition at 10 µM: 45%
[19]; read-out: Inhibition at 10µM (%) Replicate 1, CDK10/L2
  inhibition at 10 µM: 38.6%
[19]; read-out: Inhibition at 10µM (%) Replicate 2, CDK10/L2
  inhibition at 10 µM: 51.4%
